# Assay results: patent US20260028338A1, “HETEROBIFUNCTIONAL COMPOUNDS AND METHODS OF TREATING DISEASE” (Halda Therapeutics OpCo, Inc., priority 2023, published 2026)
# What was measured:
# [1] = molecular target: T1, His-tagged BRD4 BD1 (46-168) (Homo sapiens, UniProt O60885); assay: AlphaLISA competition assay, BRD4 BD1; assay type: binding; conditions: BRD4-BD1, AlphaLISA competition with biotinylated histone H4K5/8/12/16(Ac) peptide, 10 nM
# T1 construct: His-tagged BRD4 BD1 (46-168) and biotinylated histone H4K5/8/12/16(Ac) peptide
# Outline: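 His-tagged BRD4 BD1 (46-168) and biotinylated H4K5/8/12/16(Ac) peptide, each 10 nM final, in 20 mM HEPES pH 7.5, 100 mM NaCl, 0.5 mM TCEP, 0.1% BSA, 0.02% CHAPS; compounds incubated 1 h at room temperature. Streptavidin acceptor and Ni-chelate donor beads added; IC50 from AlphaLISA signal.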
# [2] = tested on: T-Rex 293 cell line SC cells lacking increased expression of BCL6 protein; assay: Cellular growth inhibition assay, T-Rex 293 SC cells without doxycycline (CellTiter-Glo); assay type: cell-based; conditions: T-Rex 293 SC cells not exposed to doxycycline (no increased BCL6 expression), 72 hours, CellTiter-Glo 2.0
# Farage cell line = assay: Cellular growth inhibition assay, Farage cells (CellTiter-Glo); assay type: cell-based; conditions: Farage cell line (DLBCL), 72 hours, CellTiter-Glo 2.0
# Experimental: (§1) Exemplary compounds were tested for ability to inhibit the proliferation of Su-DHL-4 and Farage cells. Su-DHL-4 and Farage cells are commercially available diffuse large B cell lymphoma cell lines (DLBCL).
# (§2) Su-DHL-4 and Farage cells were purchased from American Type Cell Culture (ATCC Cat #CRL-2957/CRL-2630) and then seeded on poly-D-lysine coated, black clear-bottom 384-well plates at 3000/well in 25 μL Roswell Park Memorial Institute media (RPMI-1640) supplemented with 10% w/w Fetal bovine serum (FBS) and 1% w/w Pen-Strep. Pen-Strep is a commercially available mixture of penicillin G and streptomycin, which is used in mammalian cell culture media to prevent bacterial contamination. Roswell Park Memorial Institute media (RPMI-1640) supplemented with 10% w/w fetal bovine serum (FBS), and 1% w/w Pen-Strep is herein referred to as Treatment Medium. Following seeding of cells in the plates, the plates were spun at 300×g for 30 seconds, then equilibrated to room temperature for 30 minutes, and then deposited in a humidified tissue culture incubator maintained at 37° C. with 5% CO2.
# (§3) At 24 hours after seeding of the cells, dilutions of test compound were prepared in DMSO and dissolved in Treatment Medium, to achieve a final DMSO concentration of 0.5% w/w, thereby providing the Test Compound Solution. A 25 μL aliquot of the Test Compound Solution was added to cells in the well plates. An equal volume of a solution containing DMSO and Treatment Medium was used as a negative control. Following treatment of cells with Test Compound Solution or said equal volume of a solution containing DMSO and Treatment Medium, the plates were spun at 300×g for 30 seconds, and then left in an incubator for 72 hours.
# (§4) At the end of the treatment duration, cell viability was quantified with CellTiter-Glo 2.0 reagent (Promega Cat #G9243). For this purpose, plates were equilibrated to room temperature for 30 minutes, and then 25 μL of CellTiter-Glo 2.0 reagent was added to cells in the plate wells. Plates were then agitated on a shaker for two minutes at 500 rpm and subsequently incubated at room temperature for 10 minutes. Following incubation, the plates were spun at 3000×g for 30 seconds, then sealed with an optical adhesive cover, and luminescence readings were measured with an EnVision Plate Reader (Perkin Elmer).
# (§5) Data was normalized using zero luminescence for baseline. A four-parameter non-linear regression curve fit was applied to dose-response data in GraphPad Prism data analysis software to determine the half-maximal growth inhibitory concentration (GI50) for each test compound.
# [3] = tested on: T-Rex 293 cell line SC cells having increased expression of BCL6 protein; assay: Cellular growth inhibition assay, T-Rex 293 SC cells with doxycycline (CellTiter-Glo); assay type: cell-based; conditions: T-Rex 293 SC cells with 10 ng/mL doxycycline (increased BCL6 expression), 72 hours, CellTiter-Glo 2.0
# Su-DHL-4 cell line = assay: Cellular growth inhibition assay, Su-DHL-4 cells (CellTiter-Glo); assay type: cell-based; conditions: Homo sapiens; Su-DHL-4 cell line (DLBCL), 72 hours, CellTiter-Glo 2.0
# Experimental: as §1, §2, §3, §4, §5
# [4] = molecular target: T2, His-tagged BRD4 BD2 (333-460) (Homo sapiens, UniProt O60885); assay: AlphaLISA competition assay, BRD4 BD2; assay type: binding; conditions: BRD4-BD2, AlphaLISA competition with biotinylated histone H4K5/8/12/16(Ac) peptide, 20 nM
# T2 construct: The same assay was developed for His-tagged BRD4 BD2 (333-460) and biotinylated histone H4K5/8/12/16(Ac) peptide
# Outline: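 His-tagged BRD4 BD2 (333-460) and biotinylated H4K5/8/12/16(Ac) peptide at 20 nM final, in 20 mM HEPES pH 7.5, 100 mM NaCl, 0.5 mM TCEP, 0.1% BSA, 0.02% CHAPS. Compounds incubated 1 h at room temperature, then streptavidin acceptor and nickel chelate donor beads added. IC50 derived from AlphaLISA signal.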
# [5] = molecular target: T3, biotinylated BCL6 (5-129) (Homo sapiens, UniProt P41182); assay: SPR assay for binding affinity to BCL6; conditions: Biacore 8K, 25° C., immobilized biotinylated BCL6 (5-129)
# T3 construct: biotinylated BCL6 (5-129) was diluted in 10 mM HEPES pH 7.4; biotin (biotinylated)
# Experimental: Exemplary compounds were tested for ability to bind to B-cell lymphoma 6 (BCL6) protein.
# Binding studies by surface plasmon resonance (SPR) were performed using a Biacore 8K (Cytiva) instrument at 25° C. Briefly, biotinylated BCL6 (5-129) was diluted in 10 mM HEPES pH 7.4, 150 mM NaCl, 0.05% Surfactant P20, 0.5 mM TCEP, 3% DMSO to 1-5 μg/mL and was immobilized on an SA sensor chip (Cytiva, BR100032), resulting in surface densities at 1000-3000 resonance units (RUs). Test compounds were serially diluted five times in the same buffer and were injected to the immobilized surface. Kinetic determination experiments were performed using single-cycle kinetics with 110-120 s contact time, 1000-4000 s dissociation time, 30 μL/min flow rate. Binding data were analyzed by using Biacore insight evaluation software to determine KD values for test compounds.
Structure (SMILES),IC50 [1] [nM],GI50 [2] [nM],GI50 (Farage cell line) [nM],GI50 [3] [nM],GI50 (Su-DHL-4 cell line) [nM],IC50 [4] [nM],Kd [5] [nM]
"CNC(=O)COc1cc2cc(Nc3nc(N4CCC5(CC4)CC(Oc4ccc(C6=N[C@@H](Cc7ncco7)c7nnc(C)n7-c7sc(C)c(C)c76)cc4)C5)ncc3Cl)ccc2n(C)c1=O [Compound I-25, 2-[[6-[[5-chloro-2-[2-[4-[(9S)-4,5,13-trimethyl-9-(oxazol-2-ylmethyl)-3-thia-1,8,11,12-tetrazatricyclo[8.3.0.02,6]trideca-2 (6),4,7,10,12-pentaen-7-yl]phenoxy]-7-azaspiro[3.5]nonan-7-yl]pyrimidin-4-yl]amino]-1-methyl-2-oxo-3-quinolyl]oxy]-N-methyl-acetamide]",5 to 50,< 500,< 500,< 500,< 500,< 5,> 100
CNC(=O)COc1cc2cc(Nc3nc(N4CCC(CCCN5CCN(CCN(C)[C@H]6C[C@H](Oc7ccc(C(C)(C)O)cc7-c7cn(C)c(=O)c8[nH]ccc78)C6)CC5)CC4)ncc3Cl)ccc2n(C)c1=O [Compound I-19],5 to 50,1500 to 3000,< 500,< 500,< 500,< 5,1 to 10
"CNC(=O)COc1cc2cc(Nc3nc(N4CCN(CCN(C)C5CC(Oc6ccc(C(C)(C)O)cc6-c6cn(C)c(=O)c7[nH]ccc67)C5)CC4)ncc3Cl)ccc2n(C)c1=O (stereo not shown) [Compound I-18, 2-[[6-[[5-chloro-2-[4-[2-[[3-[4-(1-hydroxy-1-methyl-ethyl)-2-(6-methyl-7-oxo-1H-pyrrolo[2,3-c]pyridin-4-yl)phenoxy]cyclobutyl]-methyl-amino]ethyl]piperazin-1-yl]pyrimidin-4-yl]amino]-1-methyl-2-oxo-3-quinolyl]oxy]-N-methyl-acetamide]",5 to 50,500 to 1500,< 500,< 500,< 500,< 5,1 to 10
CNC(=O)COc1cc2cc(Nc3nc(N4CCC(CN5CCN(CCN(C)[C@H]6C[C@H](Oc7ccc(C(C)(C)O)cc7-c7cn(C)c(=O)c8[nH]ccc78)C6)CC5)CC4)ncc3Cl)ccc2n(C)c1=O [Compound I-20],5 to 50,500 to 1500,< 500,< 500,< 500,< 5,1 to 10
